Series [1] concerns MCF-10A. The series is described as follows: Cytotoxicity against human MCF-10A cells assessed as inhibition of cell growth at 25 uM incubated for 72 hrs by MTT assay. In kind it is toxicity, cell-based. Background: Formazan colour is commonly taken as a measure of viable cells.
Series [2] is described as follows: Growth inhibition of human SJG2 cells incubated for 72 hrs by MTT assay. It is filed as functional. Conditions: SJ-G2.
Series [3] can be described thus: Growth inhibition of human MCF-10A cells incubated for 72 hrs by MTT assay. It is filed as toxicity, cell-based.
The subject of series [4] is BE(2)-C. Nature of the series: Growth inhibition of human BE2C cells incubated for 72 hrs by MTT assay. In kind it is functional.
The test system of series [5] is DU-145. The series is described as follows: Growth inhibition of human DU-145 cells incubated for 72 hrs by MTT assay. In kind it is functional.
Series [6] has as its system BXPC-3. The series is described as follows: Growth inhibition of human BXPC-3 cells incubated for 72 hrs by MTT assay. In kind it is functional.
Series [7] has as its system PANC-1. Nature of the series: Growth inhibition of human PANC-1 cells incubated for 72 hrs by MTT assay. In kind it is functional.
For series [8], the system named is Capan-2. Nature of the series: Growth inhibition of human Capan-2 cells incubated for 72 hrs by MTT assay. It is filed as functional.
Series [9] has as its system U-87 MG. The series is described as follows: Growth inhibition of human U87 cells incubated for 72 hrs by MTT assay. In kind it is functional, U-87MG ATCC.
Series [10] concerns A2780. The series is described as follows: Growth inhibition of human A2780 cells incubated for 72 hrs by MTT assay. It is filed as functional.
For series [11], the system named is HT-29. The series is described as follows: Growth inhibition of human HT-29 cells incubated for 72 hrs by MTT assay. It is filed as functional.
In series [12] the test system is HPAC. Nature of the series: Growth inhibition of human HPAC cells incubated for 72 hrs by MTT assay. It is filed as functional.
Series [13] has as its system MIA PaCa-2. Nature of the series: Growth inhibition of human MIA PaCa-2 cells incubated for 72 hrs by MTT assay. In kind it is functional.
In series [14] the test system is MCF7. The series is described as follows: Growth inhibition of human MCF7 cells incubated for 72 hrs by MTT assay. It is filed as functional.
Series [15] has as its system A-431. The series is described as follows: Growth inhibition of human A-431 cells incubated for 72 hrs by MTT assay. In kind it is functional.
The subject of series [16] is ASPC1. Nature of the series: Growth inhibition of human ASPC1 cells incubated for 72 hrs by MTT assay. In kind it is functional.
The subject of series [17] is NCI-H460. The series is described as follows: Growth inhibition of human NCI-H460 cells incubated for 72 hrs by MTT assay. In kind it is functional.

The values that follow come from ChEMBL document CHEMBL5131478, “3,5-Bis(trifluoromethyl)phenylsulfonamides, a novel pancreatic cancer active lead. Investigation of the terminal aromatic moiety” (Bioorg Med Chem Lett, 2022).

Structures are written as SMILES.

For `O=S(=O)(NCCNCc1ccc(C(F)(F)F)cc1)c1cc(C(F)(F)F)cc(C(F)(F)F)c1`, the Activity result in [1] is “Non-Toxic”.

On to `O=S(=O)(NCCCNCc1ccc(Br)cc1)c1cc(C(F)(F)F)cc(C(F)(F)F)c1`, for which the GI50 came out at 2400 nM in series [2]; 2700 nM in [4]; 2600 nM in series [5]; 1500 nM in series [6]; 2200 nM in [7]; 2000 nM in [8]. For the same compound, the GI50 in series [9] came to 2100 nM; in [10], 2600 nM; in series [11], 2200 nM; in series [12], 2900 nM; in [13] it was 2300 nM; in series [14], 1900 nM. Moreover, the values for the GI50 in series [15], in [16] and in [17] were 2500 nM, 2800 nM and 2500 nM, respectively. This compound also showed a GI50 at 72 h in series [3] of 3100 nM.

In the case of `CC(C)(C)c1ccc(CNCCCNS(=O)(=O)c2cc(C(F)(F)F)cc(C(F)(F)F)c2)cc1`, the GI50 in series [2] came out at 2400 nM; in series [4] it was 2500 nM; in series [5] it was 2700 nM; in series [6], 1400 nM; in series [7], 2500 nM; in [8], 2100 nM. Further, the concentration for 50% growth inhibition (GI50) in series [9] came out at 2300 nM; in series [10], 2900 nM; in series [11], 2000 nM; in series [12] it was 2300 nM; in series [13], 2300 nM; in series [14], 2100 nM. The GI50 in series [15] came out at 2800 nM; in [16] it was 2700 nM; in series [17], 2500 nM. The GI50 at 72 h in [3] is 3200 nM.

With `COc1ccc(CNCCNS(=O)(=O)c2cc(C(F)(F)F)cc(C(F)(F)F)c2)cc1OC`, the GI50 in series [2] came to 29000 nM; in [4], 23000 nM; in series [5], 30000 nM; in [6], 20000 nM; in [7], 34000 nM; in series [8], 34000 nM. The GI50 amounted to 25000 nM in series [9]; 14000 nM in series [10]; 13000 nM in [11]; 16000 nM in [12]; 29000 nM in [13]; 25000 nM in [14]. In addition, the GI50 was determined as 25000 nM in [15], 20000 nM in series [16] and 19000 nM in series [17]. The compound also displayed a GI50 at 72 h in series [3] of 25000 nM.

For the compound `O=S(=O)(NCCNCc1ccc(Br)cc1)c1cc(C(F)(F)F)cc(C(F)(F)F)c1`, the Activity entry in series [1] is reported as “Non-Toxic”.

With `O=S(=O)(NCCNCc1ccc(-c2ccccc2)cc1)c1cc(C(F)(F)F)cc(C(F)(F)F)c1`, the GI50 turned out to be 2500 nM in [2]; 2700 nM in [4]; 2500 nM in [5]; 1600 nM in series [6]; 4200 nM in [7]; 2400 nM in series [8]. In addition, the GI50 was 1400 nM in series [9]; 2600 nM in series [10]; 2700 nM in [11]; 2800 nM in [12]; 2700 nM in series [13]; 1400 nM in series [14]. For the same compound, the figures for the GI50 in [15], in series [16] and in [17] were 2400 nM, 2800 nM and 2600 nM, respectively. Besides, growth in series [3] was halved (GI50 at 72 h) at 3300 nM.

For `COc1ccc(CNCCCNS(=O)(=O)c2cc(C(F)(F)F)cc(C(F)(F)F)c2)cc1OC`, the GI50 in series [2] is 18000 nM; in series [4], 3600 nM; in series [5], 4000 nM; in series [6] it was 13000 nM; in series [7], 18000 nM; in series [8] it was 15000 nM. The GI50 in series [9] is 3400 nM; in series [10], 3800 nM; in [11], 2700 nM; in series [12] it was 3500 nM; in series [13] it was 2800 nM; in series [14] it was 1900 nM. Besides, the GI50 in [15] is 7000 nM; in [16], 6400 nM; in series [17] it was 2400 nM. The compound also displayed a GI50 at 72 h in [3] of 5300 nM.

Turning to `O=S(=O)(NCCCNCc1ccc(-c2ccccc2)cc1)c1cc(C(F)(F)F)cc(C(F)(F)F)c1`, the GI50 in [2] was 2300 nM; in series [4], 2600 nM; in series [5] it was 2700 nM; in series [6], 1700 nM; in series [7], 2500 nM; in series [8] it was 2200 nM. For the same compound, the GI50 was 2200 nM in series [9]; 2600 nM in [10]; 2300 nM in series [11]; 2700 nM in series [12]; 2400 nM in [13]; 1700 nM in series [14]. Also, the concentration for 50% growth inhibition (GI50) in series [15] worked out at 2600 nM; in [16] it was 2500 nM; in [17] it was 2500 nM. Moreover, in series [3], it took 2800 nM to inhibit growth by half (GI50 at 72 h).

With `CC(C)(C)c1ccc(CNCCNS(=O)(=O)c2cc(C(F)(F)F)cc(C(F)(F)F)c2)cc1`, the GI50 was found to be 14000 nM in [2]; 14000 nM in [4]; 16000 nM in series [5]; 8800 nM in series [6]; 13000 nM in series [7]; 13000 nM in series [8]. The GI50 in [9] amounted to 13000 nM; in series [10], 14000 nM; in series [11], 14000 nM; in series [12], 14000 nM; in series [13], 15000 nM; in series [14], 13000 nM. The GI50 came out at 16000 nM in series [15], 14000 nM in series [16] and 14000 nM in series [17]. In series [3], it took 14000 nM to inhibit growth by half (GI50 at 72 h).

By GI50 is commonly meant the concentration at which growth is held to half of that of the control. Low readings indicate greater sensitivity of the cells, high ones lower sensitivity of the cells.
